Assay results from US20260327239A1, “COMPOUNDS FOR COVALENT INHIBITION OF SHP2” (Purdue Research Foundation, priority 2023, published 2026).

Columns and labels:
[1] = molecular target: T1, SHP2 (Homo sapiens, UniProt Q06124); assay: Covalent adduct formation on SHP2 by intact protein LC-MS; type: binding; details: 10 μM SHP2, 60 minutes
T1 construct: 4× solution of SHP2 (residues 224-528)
T1 sequence (Q06124 224-528): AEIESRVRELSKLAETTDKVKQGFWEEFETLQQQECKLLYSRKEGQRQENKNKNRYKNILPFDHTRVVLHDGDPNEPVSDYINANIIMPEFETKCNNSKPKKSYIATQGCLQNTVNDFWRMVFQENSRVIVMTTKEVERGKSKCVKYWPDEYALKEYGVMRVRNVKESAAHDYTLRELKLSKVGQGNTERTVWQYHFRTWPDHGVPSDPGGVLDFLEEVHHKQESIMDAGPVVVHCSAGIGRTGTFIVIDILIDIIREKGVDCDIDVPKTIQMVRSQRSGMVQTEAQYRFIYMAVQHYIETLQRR
Procedure: To validate covalent modification of SHP2 by the active compounds, adduct formation on SHP2 was measured by intact protein liquid chromatography-mass spectrometry (LC-MS). With intact protein LC-MS, multiply charged states of the protein species can be deconvoluted to achieve the total mass(es). Compounds were incubated with 10 μM SHP2 for 60 minutes before being quenched with acetonitrile for LC-MS analysis by electrospray ionization (ESI) in positive mode. […] (33), and (42) (FIGS. 3A and 3B).
To unfold protein and quench protein-ligand reactivity, 10 μL of treated or untreated 10 μM SHP2 was diluted in 40 μL of 80% (v/v) formic acid initially, followed by 150 μL of LC-MS buffer (50/50 water/acetonitrile with 0.1% formic acid). 20-25 pmol per sample was analyzed by LC/MS (Agilent 1260 Infinity II with a ZORBAX Rapid Resolution High Definition 300 Å Stable Bond C3, 2.1×100 mm, 1.8 μm column) attached to an Agilent 6129 quadrupole mass spectrometer in positive ion mode. The column was held at 45° C. Mobile solution A was 0.1% formic acid in water, and mobile phase B was 0.1% formic acid in acetonitrile. The gradient used was hold at 10% B for 5 min, increase linearly to 80% B for 15 min, and then hold at 80% B for 5 min. The mass data were collected at a range of 600-1500 m/z. Raw data were processed using MestReNova. For all samples, the deconvoluted mass was calculated by taking the m/z range of 730-1100 Da, and deconvoluted mass range from 36500-37200 Da. An abundance threshold of 10% and tolerance of 30 ppm was set for deconvolution. Unreacted SHP2's total deconvoluted mass was 36602±10 Da; for each deconvolution, the highest deconvoluted mass intensity was utilized as the mass pivot point to determine and identify reacted SHP2 adducts. To calculate the percent SHP2 reacted, the relative abundance intensity of reacted SHP2 was divided by the total relative abundance intensities of unreacted and reacted SHP2.

[2] = molecular target: SHP1 (Homo sapiens, UniProt P29350); assay: Time-dependent IC50 determination, SHP1 (10 min preincubation, pNPP); type: biochemical
SHP1, sequence (P29350 whole entry): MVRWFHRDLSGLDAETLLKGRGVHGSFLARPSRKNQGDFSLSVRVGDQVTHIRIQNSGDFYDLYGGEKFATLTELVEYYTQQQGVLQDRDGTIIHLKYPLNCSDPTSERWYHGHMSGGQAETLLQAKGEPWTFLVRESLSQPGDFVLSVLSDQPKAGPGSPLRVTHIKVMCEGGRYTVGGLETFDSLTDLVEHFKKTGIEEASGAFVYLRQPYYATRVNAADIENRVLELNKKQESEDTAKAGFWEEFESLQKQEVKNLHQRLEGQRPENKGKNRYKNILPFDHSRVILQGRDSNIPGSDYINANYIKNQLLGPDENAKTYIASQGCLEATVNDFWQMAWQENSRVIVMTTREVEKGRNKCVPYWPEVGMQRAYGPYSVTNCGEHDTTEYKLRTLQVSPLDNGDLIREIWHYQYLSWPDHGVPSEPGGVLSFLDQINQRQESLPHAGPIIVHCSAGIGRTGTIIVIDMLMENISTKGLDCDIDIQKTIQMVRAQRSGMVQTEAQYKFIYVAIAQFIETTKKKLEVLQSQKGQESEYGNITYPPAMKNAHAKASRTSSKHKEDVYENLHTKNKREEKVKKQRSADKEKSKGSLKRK
Procedure: (§1) During active compound characterization, other common PTPs, including SHP1. PTP1B, and LYP, were counter-screened. Compounds were incubated for 10 minutes with the corresponding PTP (4 μM) before being diluted 50-fold into a solution containing excess substrate para-nitrophenyl phosphate (10 mM) to monitor the remaining activity. […] This was not expected, given their high sequence and structural homology. […] While unexpected, the lower sequence homology provides a rationale for the observed selectivity.
(§2) Inhibitors were evaluated for their ability to inhibit the reaction catalyzed by SHP2 using para-nitrophenyl phosphate (pNPP) as a substrate at pH 7 and 25° C. The reaction was started in a clear flat-bottom 96-well plate (Corning Costar Assay Plate #9017) by the addition of 25 μL of 4 μM PTP in DMG buffer to 25 μl of 2× inhibitor (final concentrations=2 μM PTP, 100-0 μM inhibitor). Reactions were incubated for 1 or 10 minutes before transferring 4 μL into 196 μL of 10.1 mM pNPP in DMG buffer (final concentration=40 nM PTP, 10 mM pNPP). These wells were then allowed to react for 10, 45, or 3 minutes for SHP1 and SHP2, LYP, PTP1B respectively before quenching with 50 μL of 5 M NaOH. Plates were then read for absorbance at 405 nm using a CLARIOstar^Plus plate reader (BMG Labetch). […]

[3] = molecular target: T2, LYP (Homo sapiens, UniProt Q9Y2R2); assay: Time-dependent IC50 determination, LYP (10 min preincubation, pNPP); type: biochemical
T2 sequence (Q9Y2R2 1-807): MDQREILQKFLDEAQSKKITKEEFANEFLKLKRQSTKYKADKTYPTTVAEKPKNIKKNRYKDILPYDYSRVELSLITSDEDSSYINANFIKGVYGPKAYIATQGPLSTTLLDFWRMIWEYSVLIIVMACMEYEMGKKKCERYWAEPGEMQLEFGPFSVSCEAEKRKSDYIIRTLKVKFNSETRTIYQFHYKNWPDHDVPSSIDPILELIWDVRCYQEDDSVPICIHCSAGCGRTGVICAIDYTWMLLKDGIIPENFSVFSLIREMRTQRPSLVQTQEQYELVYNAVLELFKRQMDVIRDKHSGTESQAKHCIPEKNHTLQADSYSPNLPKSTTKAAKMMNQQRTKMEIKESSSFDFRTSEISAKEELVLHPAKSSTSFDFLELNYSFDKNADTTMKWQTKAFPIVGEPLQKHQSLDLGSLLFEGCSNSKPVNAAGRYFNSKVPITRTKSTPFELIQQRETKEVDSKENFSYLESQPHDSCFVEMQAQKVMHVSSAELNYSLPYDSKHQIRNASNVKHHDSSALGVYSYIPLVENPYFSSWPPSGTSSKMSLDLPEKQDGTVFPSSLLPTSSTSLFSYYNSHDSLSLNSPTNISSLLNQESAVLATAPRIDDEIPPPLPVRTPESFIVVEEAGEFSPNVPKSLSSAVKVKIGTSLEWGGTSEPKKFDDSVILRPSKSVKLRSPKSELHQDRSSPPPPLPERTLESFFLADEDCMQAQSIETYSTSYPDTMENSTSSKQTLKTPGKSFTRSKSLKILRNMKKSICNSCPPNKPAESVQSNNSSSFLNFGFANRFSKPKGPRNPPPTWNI
Procedure: as §1, §2

[4] = molecular target: T1, SHP2; assay: Time-dependent IC50 determination, SHP2 (10 min preincubation, pNPP); type: biochemical; details: 10 mM pNPP, pH 7, 25° C, read-out: 10 Minute IC50
Procedure: as §1, §2

## C=C1C(=O)[C@@]2(C(=O)N3CCN(c4ccc(I)cc4)CC3)CC(=O)C[C@@H]1C2 [Compound 37]
[1]; intact protein LC-MS
  Found Ligand Adduct (mass shift): 461 Da
[1]; PVSN at 20 μM, compound 37 at 10 μM
  % SHP2 Reacted (overall adduct formation): 33%
[2]; SHP1, 10 minutes preincubation, curve not completed (solubility), extrapolated, read-out: 10 Minute IC50
  IC50: 212 µM
[2]; SHP2 over SHP1
  Fold-Selective (10 Minutes): 13.75 fold
[3]; LYP, 10 minutes preincubation, curve not completed (solubility), extrapolated, read-out: 10 Minute IC50
  IC50: 495 µM
[3]; SHP2 over LYP
  Fold-Selective (10 Minutes): 31.12
[4]
  IC50: 15.4 µM
